Values quoted from earlier work in PubChem BioAssay AID1259409 (Chemical Carcinogenesis Research Information System (CCRIS), 2018).

System: rodent chemically induced tumor inhibition, incidence and multiplicity
Assay: CCRIS tumor inhibitor studies
Details: Route [Inhibitor]: ORAL

In the case of `S=C=NCCc1ccccc1`, the “tumour outcome (control, treated, inhibition, significance)” value (Carcinogen: DIETHYLNITROSAMINE, 55-18-5, N-METHYL-N-NITROSOUREA, 684-93-5, N-BUTYL-N-(4-HYDROXYBUTYL)NITROSAMINE, 3817-11-6, DIMETHY, Carcinogen: DIETHYLNITROSAMINE, 55-18-5, N-METHYL-N-NITROSOUREA, 684-93-5, N-BUTYL-N-(4-HYDROXYBUTYL)NITROSAMINE, 3817-11-6, DIMETHY, Dose [Inhibitor]: 0, 0.1% IN THE DIET FOR 30 D BEGINNING 1 DAY PRIOR TO CARCINOGEN TREATMENT (STUDY DURATION: 28 WK), Species: RAT, Strain/Sex: F344/MALE, Target Tissue: Type of Lesion: LARGE INTESTINE: ADENOMA, Dose [Carcinogen]: 100 MG/KG BW DEN ONCE FOLLOWED BY 20 MG/KG BW MNU 4 TIMES AND 0.05% BBN IN DRINKING WATER DURING FIRST 2 WK THEN 40 MG/K, Promoter: NONE USED) is given as 27%, 54%, -100%, not significant, the “tumour outcome (control, treated, inhibition, significance)” value (Carcinogen: DIETHYLNITROSAMINE, 55-18-5, N-METHYL-N-NITROSOUREA, 684-93-5, N-BUTYL-N-(4-HYDROXYBUTYL)NITROSAMINE, 3817-11-6, DIMETHY, Carcinogen: DIETHYLNITROSAMINE, 55-18-5, N-METHYL-N-NITROSOUREA, 684-93-5, N-BUTYL-N-(4-HYDROXYBUTYL)NITROSAMINE, 3817-11-6, DIMETHY, Dose [Inhibitor]: 0, 0.1% IN THE DIET FOR 30 D BEGINNING 1 DAY PRIOR TO CARCINOGEN TREATMENT (STUDY DURATION: 28 WK), Species: RAT, Strain/Sex: F344/MALE, Target Tissue: Type of Lesion: SMALL INTESTINE: CARCINOMA, Dose [Carcinogen]: 100 MG/KG BW DEN ONCE FOLLOWED BY 20 MG/KG BW MNU 4 TIMES AND 0.05% BBN IN DRINKING WATER DURING FIRST 2 WK THEN 40 MG/K, Promoter: NONE USED) is given as 7%, 23%, -229%, not significant and the “tumour outcome (control, treated, inhibition, significance)” value (Carcinogen: DIETHYLNITROSAMINE, 55-18-5, N-METHYL-N-NITROSOUREA, 684-93-5, N-BUTYL-N-(4-HYDROXYBUTYL)NITROSAMINE, 3817-11-6, DIMETHY, Carcinogen: DIETHYLNITROSAMINE, 55-18-5, N-METHYL-N-NITROSOUREA, 684-93-5, N-BUTYL-N-(4-HYDROXYBUTYL)NITROSAMINE, 3817-11-6, DIMETHY, Dose [Inhibitor]: 0, 0.1% IN THE DIET FOR 30 D BEGINNING 1 DAY PRIOR TO CARCINOGEN TREATMENT (STUDY DURATION: 28 WK), Species: RAT, Strain/Sex: F344/MALE, Target Tissue: Type of Lesion: THYROID: CARCINOMA, Dose [Carcinogen]: 100 MG/KG BW DEN ONCE FOLLOWED BY 20 MG/KG BW MNU 4 TIMES AND 0.05% BBN IN DRINKING WATER DURING FIRST 2 WK THEN 40 MG/K, Promoter: NONE USED) is given as 7%, 8%, -14%, not significant. For the same compound, the “tumour outcome (control, treated, inhibition, significance)” value (Carcinogen: DIETHYLNITROSAMINE, 55-18-5, N-METHYL-N-NITROSOUREA, 684-93-5, N-BUTYL-N-(4-HYDROXYBUTYL)NITROSAMINE, 3817-11-6, DIMETHY, Carcinogen: DIETHYLNITROSAMINE, 55-18-5, N-METHYL-N-NITROSOUREA, 684-93-5, N-BUTYL-N-(4-HYDROXYBUTYL)NITROSAMINE, 3817-11-6, DIMETHY, Dose [Inhibitor]: 0, 0.1 IN THE DIET FOR 30 D BEGINNING 1 DAY PRIOR TO CARCINOGEN TREATMENT (STUDY DURATION: 28 WK), Species: RAT, Strain/Sex: F344/MALE, Target Tissue: Type of Lesion: SMALL INTESTINE: ADENOMA, Dose [Carcinogen]: 100 MG/KG BW DEN ONCE FOLLOWED BY 20 MG/KG BW MNU 4 TIMES AND 0.05% BBN IN DRINKING WATER DURING FIRST 2 WK THEN 40 MG/K, Promoter: NONE USED) was 33%, 31%, 6%, not significant, the “tumour outcome (control, treated, inhibition, significance)” value (Carcinogen: DIETHYLNITROSAMINE, 55-18-5, N-METHYL-N-NITROSOUREA, 684-93-5, N-BUTYL-N-(4-HYDROXYBUTYL)NITROSAMINE, 3817-11-6, DIMETHY, Carcinogen: DIETHYLNITROSAMINE, 55-18-5, N-METHYL-N-NITROSOUREA, 684-93-5, N-BUTYL-N-(4-HYDROXYBUTYL)NITROSAMINE, 3817-11-6, DIMETHY, Dose [Inhibitor]: 0.1% IN THE DIET FOR 30 D BEGINNING 1 DAY PRIOR TO CARCINOGEN TREATMENT (STUDY DURATION: 28 WK), Species: RAT, Strain/Sex: F344/MALE, Target Tissue: Type of Lesion: URINARY BLADDER: CARCINOMA, Dose [Carcinogen]: 100 MG/KG BW DEN ONCE FOLLOWED BY 20 MG/KG BW MNU 4 TIMES AND 0.05% BBN IN DRINKING WATER DURING FIRST 2 WK THEN 40 MG/K, Promoter: NONE USED) was 7%, 0%, 100%, not significant and the “tumour outcome (control, treated, inhibition, significance)” value (Carcinogen: DIETHYLNITROSAMINE, 55-18-5, N-METHYL-N-NITRSOUREA, 684-93-5, N-BUTYL-N-(4-HYDROXYBUTYL)NITROSAMINE, 3817-11-6, DIMETHYL, Carcinogen: DIETHYLNITROSAMINE, 55-18-5, N-METHYL-N-NITRSOUREA, 684-93-5, N-BUTYL-N-(4-HYDROXYBUTYL)NITROSAMINE, 3817-11-6, DIMETHYL, Dose [Inhibitor]: 0, 0.1% IN THE DIET FOR 30 D BEGINNING 1 DAY PRIOR TO CARCINOGEN TREATMENT (STUDY DURATION: 28 WK), Species: RAT, Strain/Sex: F344/MALE, Target Tissue: Type of Lesion: URINARY BLADDER: PAPILLOMA, Dose [Carcinogen]: 100 MG/KG BW DEN ONCE FOLLOWED BY 20 MG/KG BW MNU 4 TIMES AND 0.05% BBN IN DRINKING WATER DURING FIRST 2 WK THEN 40 MG/K, Promoter: NONE USED) was 7%, 0%, 100%, not significant. For the same compound, the “tumour outcome (control, treated, inhibition, significance)” value (Carcinogen: N-BUTYL-N(4-HYDROXYBUTYL)NITROSAMINE (3817-11-6), Dose [Inhibitor]: 0.5 UMOL/G IN DIET BEGINNING 1 WK BEFORE CARCINOGEN EXPOSURE (STUDY DURATION: 16 WK), Species: RAT, Strain/Sex: WISTAR/MALE, Target Tissue: Type of Lesion: URINARY BLADDER: PAPILLOMA, Dose [Carcinogen]: 0.025% IN DRINKING WATER FOR 15 WK, Promoter: NONE USED) was 38/40 (95%), 26/30 (87%), 8%, not significant, the “tumour outcome (control, treated, inhibition, significance)” value (Carcinogen: N-BUTYL-N(4-HYDROXYBUTYL)NITROSAMINE (3817-11-6), Dose [Inhibitor]: 0.5 UMOL/G IN DIET BEGINNING 1 WK BEFORE CARCINOGEN EXPOSURE (STUDY DURATION: 16 WK), Species: RAT, Strain/Sex: WISTAR/MALE, Target Tissue: Type of Lesion: URINARY BLADDER: TRANSITIONAL CELL CARCINOMA, Dose [Carcinogen]: 0.025% IN DRINKING WATER FOR 15 WK, Promoter: NONE USED) was 4/40 (10%), 4/30 (13%), -30%, not significant and the “tumour outcome (control, treated, inhibition, significance)” value (Carcinogen: N-NITROSOBENZYLMETHYLAMINE, 937-40-6, Dose [Inhibitor]: 0, 3 UMOL/G DIET BEGINNING 2 WK PRIOR TO CARCINOGEN TREATMENT AND CONTINUING FOR 8 WK POST CARCINOGEN TREATMENT (STUDY D, Species: RAT, Strain/Sex: F344/MALE, Target Tissue: Type of Lesion: ESOPHAGUS: TUMOR, Dose [Carcinogen]: 0.5 MG/KG 1/WK FOR 15 WK, Promoter: NONE USED) was 100%, 13%, 87%, not calculated. The “tumour outcome (control, treated, inhibition, significance)” value (Carcinogen: N-NITROSOBENZYLMETHYLAMINE, 937-40-6, Dose [Inhibitor]: 0, 3 UMOL/G IN DIET BEGINNING 2 WK PRIOR TO CARCINOGEN TREATMENT AND CONTINUING FOR DURATION OF STUDY (STUDY DURATION: 2, Species: RAT, Strain/Sex: F344/MALE, Target Tissue: Type of Lesion: ESOPHAGUS: TUMORS, Dose [Carcinogen]: 0.5 MG/KG BW IN 0.1 ML OF DMSO 1/WK FOR 15 WK, Promoter: NONE USED) was 100%, 13%, 87%, not calculated, the “tumour outcome (control, treated, inhibition, significance)” value (Carcinogen: N-NITROSOBENZYLMETHYLAMINE, 937-40-6, Dose [Inhibitor]: 0, 6 UMOL/G DIET BEGINNING 2 WK PRIOR TO CARCINOGEN TREATMENT AND CONTINUING FOR 8 WK POST CARCINOGEN TREATMENT (STUDY D, Species: RAT, Strain/Sex: F344/MALE, Target Tissue: Type of Lesion: ESOPHAGUS: TUMOR, Dose [Carcinogen]: 0.5 MG/KG 1/WK FOR 15 WK, Promoter: NONE USED) was 100%, 0%, 100%, not calculated and the “tumour outcome (control, treated, inhibition, significance)” value (Carcinogen: N-NITROSOBENZYLMETHYLAMINE, 937-40-6, Dose [Inhibitor]: 0, 6 UMOL/G IN DIET BEGINNING 2 WK PRIOR TO CARCINOGEN TREATMENT AND CONTINUING FOR DURATION OF STUDY (STUDY DURATION: 2, Species: RAT, Strain/Sex: F344/MALE, Target Tissue: Type of Lesion: ESOPHAGUS: TUMORS, Dose [Carcinogen]: 0.5 MG/KG BW IN 0.1 ML OF DMSO 1/WK FOR 15 WK, Promoter: NONE USED) was 15/15 (100%), 0/15 (0%), 100%, not calculated. The “tumour outcome (control, treated, inhibition, significance)” value (Carcinogen: N-NITROSOBIS(2-OXOPROPYL)AMINE [60599-38-4], Dose [Inhibitor]: 3 UMOL IN DIET FOR 49 WK BEGINNING 2 WK POST LAST CARCINOGEN DOSE (STUDY DURATION: 52 WK), Species: HAMSTER, Strain/Sex: SYRIAN/FEMALE, Target Tissue: Type of Lesion: LIVER: CHOLANGIOCELLAR ADENOMA, Dose [Carcinogen]: 20 MG/KG BW 1X/WK FOR 2 WK (STUDY DURATION: 52 WK), Promoter: NONE) was 19/25 (76.0%), 20/28 (71.4%), 6%, not significant, the “tumour outcome (control, treated, inhibition, significance)” value (Carcinogen: N-NITROSOBIS(2-OXOPROPYL)AMINE [60599-38-4], Dose [Inhibitor]: 3 UMOL IN DIET FOR 49 WK BEGINNING 2 WK POST LAST CARCINOGEN DOSE (STUDY DURATION: 52 WK), Species: HAMSTER, Strain/Sex: SYRIAN/FEMALE, Target Tissue: Type of Lesion: LIVER: CHOLANGIOCELLULAR ADENOMA, Dose [Carcinogen]: 20 MG/KG BW 1X/WK FOR 2 WK (STUDY DURATION: 52 WK), Promoter: NONE) was 19/25 (76.0%), 23/28 (82.1%), -8%, not significant and the “tumour outcome (control, treated, inhibition, significance)” value (Carcinogen: N-NITROSOBIS(2-OXOPROPYL)AMINE [60599-38-4], Dose [Inhibitor]: 3 UMOL IN DIET FOR 49 WK BEGINNING 2 WK POST LAST CARCINOGEN DOSE (STUDY DURATION: 52 WK), Species: HAMSTER, Strain/Sex: SYRIAN/FEMALE, Target Tissue: Type of Lesion: LIVER: HEPATOCELLULAR ADENOMA, Dose [Carcinogen]: 20 MG/KG BW 1X/WK FOR 2 WK (STUDY DURATION: 52 WK), Promoter: NONE) was 18/25 (72.0%), 16/28 (57.1%), 21%, not significant.
